# Experiment: NBPT comparative solubility in solvents
# Assay type: physicochemical
# Conditions: room temperature; for maximum weight percentage of NBPT dissolved in the solvent: vials with 20, 30, 40 and 50 wt. % NBPT
# Procedure: The solubility of the N-(n-butyl) thiophosphoric triamide (NBPT) was determined for thirteen solvents. Three of the solvents were caprolactam-derived solvents in accordance with compositions of this disclosure. The remaining ten were comparative solvents. The NBPT was 98% (HPLC) obtained from AK Scientific, Inc., Union City, California. The N-methyl-2-pyrrolidone was at least 99% pure and obtained from Sigma Aldrich of St. Louis, Missouri. The N-butyl-2-pyrrolidone was at least 98% pure and obtained from TCI America of Portland, Oregon. The methyl-5-(dimethylamino)-2-methyl-5-oxopentanoate/propylene glycol was 70-90% pure and obtained from Solvay S. A. of Princeton, N.J.
# The solubility of NBPT was evaluated for each solvent by preparing four, 2 ml vials containing 20 wt. %, 30 wt. %, 40 wt. % and 50 wt. % of NBPT. To prepare the 20 wt. % vial, 0.040 g of NBPT was added to 0.160 ml of solvent. To prepare the 30 wt. % vial, 0.060 g of NBPT was added to 0.140 ml of solvent. To prepare the 40 wt. % vial, […] of NBPT was added to 0.120 ml of solvent. To prepare the 50 wt. % vial, 0.100 g of NBPT was added to 0.100 ml of solvent. The vials were capped and swirled at room temperature until no change in solubility was observed.
# Solvents 1-3 are in accordance with compositions of the present disclosure. Solvents 4-13 are comparative solvents.
maximum weight percentage of NBPT dissolved in the solvent [%],NBPT dissolving performance compared with NMP,SMILES
<20,–,CC(=O)OC1CCCCC1 [cyclohexyl acetate]
40,performed nearly as well as NMP,CCCCN1CCCCCC1=O [N-butylcaprolactam]
50,–,CCCCN1CCCC1=O [N-butyl-2-pyrrolidone]
50,–,CN1CCCC1=O [N-methyl-2-pyrrolidone]
40,–,"COC(=O)CCCCC(=O)N(C)C [N,N-dimethyladipamide methyl ester]"
20,–,"CCCCCCCCCC(=O)N(C)C [N,N-dimethyldecanamide]"
50,performed as well as NMP,CN1CCCCCC1=O [N-methylcaprolactam]
<20,–,CCCC(=O)OC1CCCCC1 [cyclohexyl butyrate]
<20,–,N#CCCN1CCCCCC1=O [N-(2-cyanoethyl)caprolactam]
30,–,COC(=O)C(C)CCC(=O)N(C)C (stereo not shown) [methyl-5-(dimethylamino)-2-methyl-5-oxopentanoate]
50,performed as well as NMP,CCN1CCCCCC1=O [N-ethylcaprolactam]

SMILES,maximum weight percentage of NBPT dissolved in the solvent [%],NBPT dissolving performance compared with NMP
COC1CCCCC1 [cyclohexyl methyl ether],<20,–
O=C1CCCCC1 [cyclohexanone],40,–
